The values that follow come from patent US20250230165A1, “HETEROCYCLIC COMPOUNDS FOR USE IN THE TREATMENT OF CANCER” (ARTIOS PHARMA LIMITED, priority 2021, published 2025).

This assay addresses T1, Human Polθ polymerase domain (aa1820-2590) (Homo sapiens, UniProt O75417).
T1 construct: Human Polθ polymerase domain (aa1820-2590) was expressed in E. coli; made in house; host or cells: E. coli
T1 sequence (O75417 1820-2590): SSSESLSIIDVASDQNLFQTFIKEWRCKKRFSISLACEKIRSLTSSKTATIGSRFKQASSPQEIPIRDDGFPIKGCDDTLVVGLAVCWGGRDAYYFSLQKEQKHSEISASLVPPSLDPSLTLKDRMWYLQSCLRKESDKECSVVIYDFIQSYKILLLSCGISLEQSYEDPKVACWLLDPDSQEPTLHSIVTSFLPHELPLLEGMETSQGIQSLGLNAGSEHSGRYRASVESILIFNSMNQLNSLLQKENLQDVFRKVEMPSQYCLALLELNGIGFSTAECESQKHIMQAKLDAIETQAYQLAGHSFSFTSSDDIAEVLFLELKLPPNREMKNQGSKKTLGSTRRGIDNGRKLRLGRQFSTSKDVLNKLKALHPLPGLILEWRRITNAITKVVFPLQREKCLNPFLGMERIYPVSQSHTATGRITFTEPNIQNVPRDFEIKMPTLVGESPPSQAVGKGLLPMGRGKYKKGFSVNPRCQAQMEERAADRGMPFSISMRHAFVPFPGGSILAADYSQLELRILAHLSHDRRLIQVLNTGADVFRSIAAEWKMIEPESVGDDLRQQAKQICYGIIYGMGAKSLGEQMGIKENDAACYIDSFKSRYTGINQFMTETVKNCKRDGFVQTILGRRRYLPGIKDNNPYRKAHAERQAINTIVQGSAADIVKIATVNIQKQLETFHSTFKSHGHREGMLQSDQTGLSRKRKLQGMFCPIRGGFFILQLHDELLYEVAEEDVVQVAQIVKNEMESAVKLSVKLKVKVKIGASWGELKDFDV
Kind of assay: Polθ Polymerase Domain Kinact/KI Assay (PicoGreen). Format: biochemical. Particulars: 0.8 nM Polθ, 100 nM DNA substrate, kobs vs [I] fit for 2-step covalent inhibitor. A digest of the protocol:
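Kinact and KI derive from fitting kobs versus [I], where kobs were fitted from EDTA-stopped PicoGreen time courses (up to 60 min) in Tris pH 7.5 buffer with 1% DMSO, 0.8 nM enzyme, 100 nM DNA and […].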
For the compound `C=CC(=O)N1CC(N2CC[C@H](CN3C[C@H]4CC(=O)N(c5cc(C(F)(F)F)cc(C)n5)[C@@H]4C(=O)N(C)c4cccc(Cl)c43)C2)C1` [Example 218, (3aR,11aS)-5-(((S)-1-(1-acryloylazetidin-3-yl)pyrrolidin-3-yl)methyl)-6-chloro-10-methyl-1-(6-methyl-4-(trifluoromethyl)pyridin-2-yl)-1,3a,4,5,10,11a-hexahydro-2H-benzo[b]pyrrolo [2,3-f][1,4] diazocine-2,11 (3H)-dione], the Kinact/Kl was found to be 1.62e+06 M⁻¹ s⁻¹. With `Cc1cc(C(F)(F)F)cc(N2C(=O)C[C@@H]3CN(Cc4cn5c(n4)CN(C(=O)CCl)C(C)C5)c4c(Cl)cccc4N(C)C(=O)[C@H]32)n1` (mixture of isomers) [Example 73a, (3aR,11aS)-6-chloro-5-(((R/S)-7-(2-chloroacetyl)-6-methyl-5,6,7,8-tetrahydroimidazo[1,2-a]pyrazin-2-yl)methyl)-10-methyl-1-(6-methyl-4-(trifluoromethyl)pyridin-2-yl)-1,3a,4,5,10,11a-hexahydro-2H-benzo[b]pyrrolo[2,3-f][1,4]diazocine-2,11(3H)-dione] the figure was 39000 M⁻¹ s⁻¹; with `Cc1cc(C(F)(F)F)cc(N2C(=O)C[C@@H]3CN(Cc4ccc5c(c4)CN(C(=O)/C=C/CN(C)C)C5CC#N)c4c(Cl)cccc4N(C)C(=O)[C@H]32)n1` (single isomer, unassigned) [Example 310b], 1.46e+06 M⁻¹ s⁻¹; with `C=CC(=O)NC1Cc2ccc(CN3C[C@H]4CC(=O)N(c5cc(C(F)(F)F)cc(C)n5)[C@@H]4C(=O)N(C)c4cccc(Cl)c43)cc2C1` (stereo partly drawn) [Example 286, N-(5-(((3aR,11aS)-6-chloro-10-methyl-1-(6-methyl-4-(trifluoromethyl)pyridin-2-yl)-2,11-dioxo-1,2,3,3a,4,10,11,11a-octahydro-5H-benzo[b]pyrrolo[2,3-f][1,4]diazocin-5-yl)methyl)-2,3-dihydro-1H-inden-2-yl)acrylamide], 610000 M⁻¹ s⁻¹. As to `Cc1cc(C(F)(F)F)cc(N2C(=O)C[C@@H]3CN(CC(F)CCCNC(=O)/C=C/CN(C)C)c4c(Cl)cccc4N(C)C(=O)[C@H]32)n1` (stereo partly drawn) [Example 253, (E)-N-(5-((3aR,11aS)-6-chloro-10-methyl-1-(6-methyl-4-(trifluoromethyl)pyridin-2-yl)-2,11-dioxo-1,2,3,3a,4,10,11,11a-octahydro-5H-benzo[b]pyrrolo[2,3-f][1,4]diazocin-5-yl)-4-fluoropentyl)-4-(dimethylamino)but-2-enamide], the Kinact/Kl is 1.42e+06 M⁻¹ s⁻¹.

For the compound `C=CC(=O)N1Cc2ccc(CN3C[C@H]4CC(=O)N(c5cc(C(F)(F)F)cc(C)n5)[C@@H]4C(=O)N(C)c4cccc(C)c43)nc2[C@@H]1CC#N` (racemic) [Example 318b, 2-((S/R)-6-acryloyl-2-(((3aR,11aS)-6,10-dimethyl-1-(6-meth-yl-4-(trifluorometh-yl)pyridin-2-yl)-2,11-dioxo-1,2,3,3a, 4,10,11,11a-octa-hydro-5H-benzo[b]pyrrolo[2,3-f][1,4]diazocin-5-yl)meth-yl)-6,7-dihydro-5H-pyrrolo[3,4-b]pyr-idin-7-yl)acetonitrile], the Kinact/Kl is 1.56e+06 M⁻¹ s⁻¹. With `C=CC(=O)N1C[C@@H]2CN(CCN3C[C@H]4CC(=O)N(c5cc(C(F)(F)F)cc(C)n5)[C@@H]4C(=O)N(C)c4cccc(F)c43)CCN2C(=O)[C@@H]1C` (single isomer, unassigned) [Example 59] the figure was 1.08e+06 M⁻¹ s⁻¹; with `C=CC(=O)N1CC(N2CC[C@H](CN3C[C@H]4CC(=O)N(c5cc(C(F)(F)F)cc(C)n5)[C@@H]4C(=O)N(C)c4cccc(Cl)c43)[C@@H](C#N)C2)C1` (single isomer, unassigned) [Example 226b], 870000 M⁻¹ s⁻¹; with `C=CC(=O)N1C[C@@H](F)[C@@H](n2cnc(CN3C[C@H]4CC(=O)N(c5cc(C(F)(F)F)cc(C)n5)[C@@H]4C(=O)N(C)c4cccc(C)c43)c2)C1` (single isomer, unassigned) [Example 326a], 450000 M⁻¹ s⁻¹.

`C=CC(=O)N1CC(C)(N2CCN(CCN3C[C@H]4CC(=O)N(c5cc(C(F)(F)F)cc(C)n5)[C@@H]4C(=O)N(C)c4cccc(C)c43)CC2)C1` [Example 72, (3aR,11aS)-5-(2-(4-(1-acryloyl-3-methylazetidin-3-yl)piperazin-1-yl)ethyl)-6,10-dimethyl-1-(6-methyl-4-(trifluoromethyl)pyridin-2-yl)-1,3a,4,5,10,11a-hexahydro-2H-benzo[b]pyrrolo[2,3-f][1,4]diazocine-2,11(3H)-dione] returned a Kinact/Kl of 2.36e+06 M⁻¹ s⁻¹. With `Cc1cc(C(F)(F)F)cc(N2C(=O)C[C@@H]3CN(CCCCCNC(=O)/C=C/CN(C)C)c4c(C)cccc4N(C)C(=O)[C@H]32)n1` [Example 83, (E)-N-(5-((3aR,11aS)-6,10-dimethyl-1-(6-methyl-4-(trifluoromethyl)pyridin-2-yl)-2,11-dioxo-1,2,3,3a,4,10,11,11a-octahydro-5H-benzo[b]pyrrolo[2,3-f][1,4]diazocin-5-yl)pentyl)-4-(dimethylamino)but-2-enamide] the figure was 620000 M⁻¹ s⁻¹.

Regarding `C=CC(=O)N1CC2CC(C1)N2CCN1C[C@H]2CC(=O)N(c3cc(C(F)(F)F)cc(C)n3)[C@@H]2C(=O)N(C)c2cccc(C)c21` [Example 261, (3aR,11aS)-5-(2-(3-acryloyl-3,6-diazabicyclo[3.1.1]heptan-6-yl)ethyl)-6,10-dimethyl-1-(6-methyl-4-(trifluoromethyl)pyridin-2-yl)-1,3a,4,5,10,11a-hexahydro-2H-benzo[b]pyrrolo[2,3-f][1,4]diazocine-2,11(3H)-dione], the Kinact/Kl is 340000 M⁻¹ s⁻¹.

`C=CC(=O)N1CCN(CCCN2C[C@H]3CC(=O)N(c4cc(C(F)(F)F)cc(C)n4)[C@@H]3C(=O)N(C)c3cccc(C)c32)CC1C(F)(F)F` (mixture of isomers) [Example 265a, (3aR,11aS)-5-(3-((S/R)-4-acryloyl-3-(trifluoromethyl)piperazin-1-yl)propyl)-6,10-dimethyl-1-(6-methyl-4-(trifluoromethyl)pyridin-2-yl)-1,3a,4,5,10,11a-hexahydro-2H-benzo[b]pyrrolo[2,3-f][1,4]diazocine-2,11(3H)-dione] yielded a Kinact/Kl of 3.32e+06 M⁻¹ s⁻¹. With `C=C(CN(C)C)C(=O)N1CC[C@@H](COCCN2C[C@H]3CC(=O)N(c4cc(C(F)(F)F)cc(C)n4)[C@@H]3C(=O)N(C)c3cccc(C)c32)C1` [Example 180, (3aR,11aS)-5-(2-(((R)-1-(2-((dimeth-ylamino)methyl)-acryloyl)pyrrolidin-3-yl)methoxy)eth-yl)-6,10-dimethyl-1-(6-methyl-4-(trifluoromethyl)-pyridin-2-yl)-1,3a,4,5,10,11a-hexahydro-2H-benzo[b]pyrrolo [2,3-f][1,4]diazo-cine-2,11(3H)-dione] the figure was 2.72e+06 M⁻¹ s⁻¹; with `C=C(CN(C)C)C(=O)N1CCC(OCCN2C[C@H]3CC(=O)N(c4cc(C(F)(F)F)cc(C)n4)[C@@H]3C(=O)N(C)c3cccc(Cl)c32)CC1` [Example 157, (3aR,11aS)-6-chloro-5-(2-((1-(2-((dimethylamino)methyl)acryloyl)piperidin-4-yl)oxy)ethyl)-10-methyl-1-(6-methyl-4-(trifluoromethyl)pyridin-2-yl)-1,3a,4,5,10,11a-hexahydro-2H-benzo[b]pyrrolo[2,3-f][1,4]diazocine-2,11(3H)-dione], 1.57e+06 M⁻¹ s⁻¹.

`C=CC(=O)N1CC2(CN(CCN3C[C@H]4CC(=O)N(c5cc(C(F)(F)F)cc(C)n5)[C@@H]4C(=O)N(C)c4cccc(Cl)c43)CC3COCCN32)C1` (single isomer, unassigned) [Example 26a]: the Kinact/Kl came out at 690000 M⁻¹ s⁻¹. For `C=C(CN(C)C)C(=O)N[C@@H]1CCn2cc(CN3C[C@H]4CC(=O)N(c5cc(C(F)(F)F)cc(C)n5)[C@@H]4C(=O)N(C)c4cccc(C)c43)nc2C1` (racemic) [Example 330b, N-((R/S)-2-(((3aR, 11aS)-6,10-dimethyl-1-(6-methyl-4-(trifluoromethyl)pyr-idin-2-yl)-2,11-dioxo-1,2,3,3a,4,10,11,11a-octahydro-5H-benzo [b]pyrrolo[2,3-f][1,4]diazocin-5-yl)meth-yl)-5,6,7,8-tetrahydro-imidazo[1,2-a]pyridin-7-yl)-2-((dimethyl-amino)methyl)acryl-amide] the value was 1.15e+06 M⁻¹ s⁻¹; for `Cc1cc(C(F)(F)F)cc(N2C(=O)C[C@@H]3CN(Cc4ccc(NC(=O)C5=CCCNC5)cc4)c4c(C)cccc4N(C)C(=O)[C@H]32)n1` [Example 88, N-(4-(((3aR,11aS)-6,10-dimethyl-1-(6-methyl-4-(trifluoromethyl)pyridin-2-yl)-2,11-dioxo-1,2,3,3a,4,10,11,11a-octahydro-5H-benzo[b]pyrrolo[2,3-f][1,4]diazocin-5-yl)methyl)phenyl)-1,2,5,6-tetrahydropyridine-3-carboxamide], 4.75e+06 M⁻¹ s⁻¹.
